Source: PubChem BioAssay AID2060897 (Molecular Pharmacology Branch, DTP, NCI, 2025)

Test system: 966289-007-R4-J1-PDC complex spheroid viability
Assay: Anticancer human tumor 966289-007-R4-J1-PDC patient-derived pancreatic adenocarcinoma cell line growth inhibition [RAS]
Settings: for IC50: curve of first compound; for viability, T/C: stronger effect = lower value
In short: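 Tumour cells grown as complex spheroids with HUVEC endothelial cells and mesenchymal stem cells, treated with RAS pathway inhibitor combinations. Each agent spans half-log steps from near clinical Cmax, or 10 microM where Cmax is unknown.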
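Also: spheroids exposed to agents for one week before readout.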
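For viability, T/C in this document: percent viability relative to DMSO vehicle control wells as 100%.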

In the case of CC1(C)CCC(Nc2ncc(C(F)(F)F)c(-c3c[nH]c4c(P(C)(C)=O)c(C#N)ccc34)n2)CN1 (stereo unspecified) + C=CC(=O)N1CCN(c2nc(OCC3CCCN3C)nc3c(F)c(-c4nc(N)cc(C)c4C(F)(F)F)c(Cl)cc23)C(C)C1, the IC50 (second compound 0.00316 µM) is reported as 10.2 nM, the IC50 (second compound 0.01 µM) is reported as 12.4 nM and the IC50 (second compound 0.0316 µM) is reported as 6.79 nM. For the same compound, the IC50 (second compound 0.1 µM) was 13.1 nM, the IC50 (second compound 0.316 µM) was 12.2 nM and the IC50 (second compound 1 µM) was 13.8 nM. The viability, T/C (second compound 0.00316 µM, first compound 0.000949 µM) was 103%, the viability, T/C (second compound 0.00316 µM, first compound 0.003 µM) was 113% and the viability, T/C (second compound 0.00316 µM, first compound 0.00949 µM) was 52.6%. The viability, T/C (second compound 0.00316 µM, first compound 0.03 µM) was 14%, the viability, T/C (second compound 0.00316 µM, first compound 0.0949 µM) was 9.67% and the viability, T/C (second compound 0.00316 µM, first compound 0.3 µM) was 8.68%. It also gave a viability, T/C (second compound 0.01 µM, first compound 0.000949 µM) of 102%, a viability, T/C (second compound 0.01 µM, first compound 0.003 µM) of 124% and a viability, T/C (second compound 0.01 µM, first compound 0.00949 µM) of 61.4%. The viability, T/C (second compound 0.01 µM, first compound 0.03 µM) was 16.4%, the viability, T/C (second compound 0.01 µM, first compound 0.0949 µM) was 8.51% and the viability, T/C (second compound 0.01 µM, first compound 0.3 µM) was 9.49%. The viability, T/C (second compound 0.0316 µM, first compound 0.000949 µM) was 97.4%, the viability, T/C (second compound 0.0316 µM, first compound 0.003 µM) was 99.6% and the viability, T/C (second compound 0.0316 µM, first compound 0.00949 µM) was 30.1%. The viability, T/C (second compound 0.0316 µM, first compound 0.03 µM) was 15.9%, the viability, T/C (second compound 0.0316 µM, first compound 0.0949 µM) was 10.5% and the viability, T/C (second compound 0.0316 µM, first compound 0.3 µM) was 9.47%. The viability, T/C (second compound 0.1 µM, first compound 0.000949 µM) was 118%, the viability, T/C (second compound 0.1 µM, first compound 0.003 µM) was 117% and the viability, T/C (second compound 0.1 µM, first compound 0.00949 µM) was 64%. It also gave a viability, T/C (second compound 0.1 µM, first compound 0.03 µM) of 13.9%, a viability, T/C (second compound 0.1 µM, first compound 0.0949 µM) of 9.91% and a viability, T/C (second compound 0.1 µM, first compound 0.3 µM) of 8.45%. It also gave a viability, T/C (second compound 0.316 µM, first compound 0.000949 µM) of 103%, a viability, T/C (second compound 0.316 µM, first compound 0.003 µM) of 108% and a viability, T/C (second compound 0.316 µM, first compound 0.00949 µM) of 59.7%. For the same compound, the viability, T/C (second compound 0.316 µM, first compound 0.03 µM) was 15.8%, the viability, T/C (second compound 0.316 µM, first compound 0.0949 µM) was 8.13% and the viability, T/C (second compound 0.316 µM, first compound 0.3 µM) was 8.27%. The viability, T/C (second compound 1 µM, first compound 0.000949 µM) was 113%, the viability, T/C (second compound 1 µM, first compound 0.003 µM) was 118% and the viability, T/C (second compound 1 µM, first compound 0.00949 µM) was 67.2%. It also gave a viability, T/C (second compound 1 µM, first compound 0.03 µM) of 15.6%, a viability, T/C (second compound 1 µM, first compound 0.0949 µM) of 9.94% and a viability, T/C (second compound 1 µM, first compound 0.3 µM) of 7.89%.

Nc1ccn(C2OC(CO)C(O)C2(F)F)c(=O)n1 (stereo unspecified) + C#Cc1c(F)ccc2cc(O)cc(-c3ncc4c(N5CC6CCC(C5)N6)nc(OCC56CCCN5CC(F)C6)nc4c3F)c12 gave an IC50 (second compound 0.0316 µM) of 7.64 nM, an IC50 (second compound 0.1 µM) of 11.9 nM and an IC50 (second compound 0.316 µM) of 8.38 nM. For the same compound, the IC50 (second compound 1 µM) was 8.9 nM, the IC50 (second compound 3.16 µM) was 8.38 nM and the IC50 (second compound 10 µM) was 7.88 nM. The viability, T/C (second compound 0.0316 µM, first compound 0.00316 µM) was 108%, the viability, T/C (second compound 0.0316 µM, first compound 0.01 µM) was 32.5% and the viability, T/C (second compound 0.0316 µM, first compound 0.0316 µM) was 2.19%. The viability, T/C (second compound 0.0316 µM, first compound 0.1 µM) was 1.41%, the viability, T/C (second compound 0.0316 µM, first compound 0.316 µM) was 1.38% and the viability, T/C (second compound 0.0316 µM, first compound 1 µM) was 1.56%. For the same compound, the viability, T/C (second compound 0.1 µM, first compound 0.00316 µM) was 99.4%, the viability, T/C (second compound 0.1 µM, first compound 0.01 µM) was 58.5% and the viability, T/C (second compound 0.1 µM, first compound 0.0316 µM) was 1.48%. It also gave a viability, T/C (second compound 0.1 µM, first compound 0.1 µM) of 1.34%, a viability, T/C (second compound 0.1 µM, first compound 0.316 µM) of 1.6% and a viability, T/C (second compound 0.1 µM, first compound 1 µM) of 1.65%. It also gave a viability, T/C (second compound 0.316 µM, first compound 0.00316 µM) of 91.6%, a viability, T/C (second compound 0.316 µM, first compound 0.01 µM) of 42.4% and a viability, T/C (second compound 0.316 µM, first compound 0.0316 µM) of 1.95%. It also gave a viability, T/C (second compound 0.316 µM, first compound 0.1 µM) of 1.65%, a viability, T/C (second compound 0.316 µM, first compound 0.316 µM) of 1.22% and a viability, T/C (second compound 0.316 µM, first compound 1 µM) of 1.73%. It also gave a viability, T/C (second compound 1 µM, first compound 0.00316 µM) of 101%, a viability, T/C (second compound 1 µM, first compound 0.01 µM) of 44.2% and a viability, T/C (second compound 1 µM, first compound 0.0316 µM) of 2.02%. For the same compound, the viability, T/C (second compound 1 µM, first compound 0.1 µM) was 1.61%, the viability, T/C (second compound 1 µM, first compound 0.316 µM) was 1.68% and the viability, T/C (second compound 1 µM, first compound 1 µM) was 1.67%. The viability, T/C (second compound 3.16 µM, first compound 0.00316 µM) was 97.4%, the viability, T/C (second compound 3.16 µM, first compound 0.01 µM) was 41.4% and the viability, T/C (second compound 3.16 µM, first compound 0.0316 µM) was 2.43%. It also gave a viability, T/C (second compound 3.16 µM, first compound 0.1 µM) of 2.49%, a viability, T/C (second compound 3.16 µM, first compound 0.316 µM) of 2.42% and a viability, T/C (second compound 3.16 µM, first compound 1 µM) of 2.25%. For the same compound, the viability, T/C (second compound 10 µM, first compound 0.00316 µM) was 99.1%, the viability, T/C (second compound 10 µM, first compound 0.01 µM) was 37.1% and the viability, T/C (second compound 10 µM, first compound 0.0316 µM) was 1.37%. The viability, T/C (second compound 10 µM, first compound 0.1 µM) was 1.51%, the viability, T/C (second compound 10 µM, first compound 0.316 µM) was 1.83% and the viability, T/C (second compound 10 µM, first compound 1 µM) was 1.37%.

CCN1CCN(Cc2ccc(Nc3ncc(F)c(-c4cc(F)c5nc(C)n(C(C)C)c5c4)n3)nc2)CC1 + CCn1c(-c2cccnc2C(C)OC)c2c3cc(ccc31)N1CCOC(CC(NC(=O)C(C(C)C)N(C)C(=O)C3(F)CCN(C(=O)C#CC(C)(C)N(C)C)CC3)C(=O)N3CCCC(N3)C(=O)OCC(C)(C)C2)C1 was tested, and the IC50 (second compound 0.000949 µM) was > 1000 nM, the IC50 (second compound 0.003 µM) was > 1000 nM and the IC50 (second compound 0.00949 µM) was > 1000 nM. For the same compound, the IC50 (second compound 0.03 µM) was > 1000 nM, the IC50 (second compound 0.0949 µM) was > 1000 nM and the IC50 (second compound 0.3 µM) was > 1000 nM. For the same compound, the viability, T/C (second compound 0.000949 µM, first compound 0.00316 µM) was 107%, the viability, T/C (second compound 0.000949 µM, first compound 0.01 µM) was 84.9% and the viability, T/C (second compound 0.000949 µM, first compound 0.0316 µM) was 104%. It also gave a viability, T/C (second compound 0.000949 µM, first compound 0.1 µM) of 81.3%, a viability, T/C (second compound 0.000949 µM, first compound 0.316 µM) of 85.6% and a viability, T/C (second compound 0.000949 µM, first compound 1 µM) of 79.3%. The viability, T/C (second compound 0.003 µM, first compound 0.00316 µM) was 106%, the viability, T/C (second compound 0.003 µM, first compound 0.01 µM) was 78.2% and the viability, T/C (second compound 0.003 µM, first compound 0.0316 µM) was 93.7%. For the same compound, the viability, T/C (second compound 0.003 µM, first compound 0.1 µM) was 79.8%, the viability, T/C (second compound 0.003 µM, first compound 0.316 µM) was 93.4% and the viability, T/C (second compound 0.003 µM, first compound 1 µM) was 84.1%. The viability, T/C (second compound 0.00949 µM, first compound 0.00316 µM) was 69.9%, the viability, T/C (second compound 0.00949 µM, first compound 0.01 µM) was 90.2% and the viability, T/C (second compound 0.00949 µM, first compound 0.0316 µM) was 104%. It also gave a viability, T/C (second compound 0.00949 µM, first compound 0.1 µM) of 90.4%, a viability, T/C (second compound 0.00949 µM, first compound 0.316 µM) of 90% and a viability, T/C (second compound 0.00949 µM, first compound 1 µM) of 78.5%. For the same compound, the viability, T/C (second compound 0.03 µM, first compound 0.00316 µM) was 77.8%, the viability, T/C (second compound 0.03 µM, first compound 0.01 µM) was 83.3% and the viability, T/C (second compound 0.03 µM, first compound 0.0316 µM) was 99.5%. The viability, T/C (second compound 0.03 µM, first compound 0.1 µM) was 81.4%, the viability, T/C (second compound 0.03 µM, first compound 0.316 µM) was 90.9% and the viability, T/C (second compound 0.03 µM, first compound 1 µM) was 78.9%. The viability, T/C (second compound 0.0949 µM, first compound 0.00316 µM) was 78.4%, the viability, T/C (second compound 0.0949 µM, first compound 0.01 µM) was 99.6% and the viability, T/C (second compound 0.0949 µM, first compound 0.0316 µM) was 112%. The viability, T/C (second compound 0.0949 µM, first compound 0.1 µM) was 99.8%, the viability, T/C (second compound 0.0949 µM, first compound 0.316 µM) was 94.4% and the viability, T/C (second compound 0.0949 µM, first compound 1 µM) was 79.9%. It also gave a viability, T/C (second compound 0.3 µM, first compound 0.00316 µM) of 83.3%, a viability, T/C (second compound 0.3 µM, first compound 0.01 µM) of 88.6% and a viability, T/C (second compound 0.3 µM, first compound 0.0316 µM) of 101%. It also gave a viability, T/C (second compound 0.3 µM, first compound 0.1 µM) of 87.7%, a viability, T/C (second compound 0.3 µM, first compound 0.316 µM) of 91% and a viability, T/C (second compound 0.3 µM, first compound 1 µM) of 81.3%.
